How the values were obtained:
recombinant human HDAC6 = recombinant human HDAC6 (Homo sapiens, UniProt Q9UBN7); test: biochemical
Description: The HDACs in vitro activities of recombinant human HDAC 1, 2, 4, 6 and 8 (BPS Biosciences) were detected by fluorigenic release of 7-amino-4-methylcoumarin from substrate upon deacetylase enzymatic activity.

HCT116 cells = test: Western blot histone H3 and α-tubulin acetylation; type: cell-based, human; conditions: 24 h
Description: For total lysate, cells were lysed with the 120 µL ice-cold lysis buffer [10 mmol/L Tris-HCl (pH 7.4), 150 mmol/L NaCl, 1 mmol/L EGTA, 1 mmol/L phenylmethylsulfonyl fluoride, 10 µg/mL aprotinin, 10 µg/mL leupeptin, 1 mM sodium orthovandate, 1 mM NaF, and 1% Triton X-100]. Cell lysates were centrifuged at 13,000 rpm for 30 min. For Western blot analysis, the amount of protein (40 µg) was separated by electrophoresis in a 10% or 15% polyacrylamide gel and transferred to a polyvinylidene difluoride (PVDF) membrane. After 1 h incubation at room temperature in PBS/5% nonfat milk, the membrane was washed with PBS/0.1% and incubated with the indicated antibodies at 4°C overnight. After washings with PBS/0.1% Tween 20, the corresponding secondary antibodies were applied to the membranes for 1 h at room temperature. The membranes were then washed with PBS/0.1% Tween 20 and the detection of signal was done with an enhanced chemiluminescence detection kit (Amersham, Buckinghamshire, UK).

UACC-62 = test: NCI-60 cell lines screening; type: cell-based, human; conditions: UACC-62, Melanoma panel
Description: (§1) The NCI-60 cancer cell lines screening was conducted by the NCI’s Developmental Therapeutics Program (DTP; http://www.dtp.nci.nih.gov/branches/btb/ivclsp.html).

SNB-75 = test: NCI-60 cell lines screening; type: cell-based, human; conditions: SNB-75, CNS Cancer panel
Description: as §1

SF-295 = test: NCI-60 cell lines screening; type: cell-based, human; conditions: SF-295, CNS Cancer panel
Description: as §1

HOP-62 = test: NCI-60 cell lines screening; type: cell-based, human; conditions: HOP-62, Non-Small Cell Lung Cancer panel
Description: as §1

M14 = test: NCI-60 cell lines screening; type: cell-based, human; conditions: M14, Melanoma panel
Description: as §1

ACHN = test: NCI-60 cell lines screening; type: cell-based, human; conditions: Renal Cancer panel
Description: as §1

CAKI-1 = test: NCI-60 cell lines screening; type: cell-based, human; conditions: CAKI-1, Renal Cancer panel
Description: as §1

A498 = test: NCI-60 cell lines screening; type: cell-based, human; conditions: A498, Renal Cancer panel
Description: as §1

SW-620 = test: NCI-60 cell lines screening; type: cell-based, human; conditions: SW-620, Colon Cancer panel
Description: as §1

MDA-MB-435 = test: NCI-60 cell lines screening; type: cell-based, human; conditions: MDA-MB-435, Melanoma panel
Description: as §1

HOP-92 = test: NCI-60 cell lines screening; type: cell-based, human; conditions: HOP-92, Non-Small Cell Lung Cancer panel
Description: as §1

IGROV1 = test: NCI-60 cell lines screening; type: cell-based, human; conditions: IGROV1, Ovarian Cancer panel
Description: as §1

UACC-257 = test: NCI-60 cell lines screening; type: cell-based, human; conditions: UACC-257, Melanoma panel
Description: as §1

SNB-19 = test: NCI-60 cell lines screening; type: cell-based, human; conditions: SNB-19, CNS Cancer panel
Description: as §1

KM12 = test: NCI-60 cell lines screening; type: cell-based, human; conditions: KM12, Colon Cancer panel
Description: as §1

RPMI-8226 = test: NCI-60 cell lines screening; type: cell-based, human; conditions: RPMI-8226, Leukemia panel
Description: as §1

RXF 393 = test: NCI-60 cell lines screening; type: cell-based, human; conditions: RXF 393, Renal Cancer panel
Description: as §1

T-47D = test: NCI-60 cell lines screening; type: cell-based, human; conditions: Breast Cancer panel
Description: as §1

CCRF-CEM = test: NCI-60 cell lines screening; type: cell-based, human; conditions: Leukemia panel
Description: as §1

786-0 = test: NCI-60 cell lines screening; type: cell-based, human; conditions: 786-0, Renal Cancer panel
Description: as §1

BT-549 = test: NCI-60 cell lines screening; type: cell-based, human; conditions: BT-549, Breast Cancer panel
Description: as §1

OVCAR-8 = test: NCI-60 cell lines screening; type: cell-based, human; conditions: OVCAR-8, Ovarian Cancer panel
Description: as §1

HCT-116 = test: NCI-60 cell lines screening; type: cell-based, human; conditions: HCT-116, Colon Cancer panel
Description: as §1

DU-145 = test: NCI-60 cell lines screening; type: cell-based, human; conditions: DU-145, Prostate Cancer panel
Description: as §1

[1] = Homo sapiens, read-out: LC50 (the source's name)

Sequence of recombinant human HDAC6 (Q9UBN7 whole entry): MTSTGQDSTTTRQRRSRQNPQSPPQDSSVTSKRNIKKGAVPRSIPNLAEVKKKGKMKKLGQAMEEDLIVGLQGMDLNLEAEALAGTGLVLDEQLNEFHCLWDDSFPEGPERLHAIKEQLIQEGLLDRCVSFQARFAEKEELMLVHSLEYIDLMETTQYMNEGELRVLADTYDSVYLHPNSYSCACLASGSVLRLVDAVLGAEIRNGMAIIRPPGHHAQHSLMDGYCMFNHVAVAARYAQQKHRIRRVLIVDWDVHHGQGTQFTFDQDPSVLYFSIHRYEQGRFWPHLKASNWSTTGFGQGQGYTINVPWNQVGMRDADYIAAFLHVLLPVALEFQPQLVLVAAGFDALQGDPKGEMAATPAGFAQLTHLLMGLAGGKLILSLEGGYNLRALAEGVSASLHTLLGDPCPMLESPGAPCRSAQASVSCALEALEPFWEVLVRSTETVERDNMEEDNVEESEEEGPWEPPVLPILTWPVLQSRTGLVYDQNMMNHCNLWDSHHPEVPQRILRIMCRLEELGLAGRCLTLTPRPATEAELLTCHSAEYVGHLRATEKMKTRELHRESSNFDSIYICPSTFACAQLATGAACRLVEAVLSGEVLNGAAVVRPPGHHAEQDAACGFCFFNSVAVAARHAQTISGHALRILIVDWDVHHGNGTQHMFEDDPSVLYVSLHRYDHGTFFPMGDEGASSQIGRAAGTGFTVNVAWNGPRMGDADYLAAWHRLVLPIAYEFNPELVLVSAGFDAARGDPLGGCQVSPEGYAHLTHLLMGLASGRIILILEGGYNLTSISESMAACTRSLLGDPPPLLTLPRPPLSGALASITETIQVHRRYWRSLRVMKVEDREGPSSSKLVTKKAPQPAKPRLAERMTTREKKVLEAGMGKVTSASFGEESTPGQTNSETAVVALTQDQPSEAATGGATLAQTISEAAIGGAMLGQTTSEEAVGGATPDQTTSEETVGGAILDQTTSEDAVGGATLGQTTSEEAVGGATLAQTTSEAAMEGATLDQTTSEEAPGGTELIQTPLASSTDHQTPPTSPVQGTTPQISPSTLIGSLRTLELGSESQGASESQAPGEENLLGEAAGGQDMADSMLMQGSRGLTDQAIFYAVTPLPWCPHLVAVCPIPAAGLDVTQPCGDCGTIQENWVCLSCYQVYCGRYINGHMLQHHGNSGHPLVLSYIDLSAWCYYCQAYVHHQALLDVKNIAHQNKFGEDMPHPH

Compound: O=C(C=Cc1ccc2c(c1)CCN2S(=O)(=O)c1ccccc1)NO [MPT0E028, 3-(1-benzenesulfonyl-2,3-dihydro-1H-indol-5-yl)-N-hydroxy-acrylamide]
- IC50 (recombinant human HDAC6): 29.5 ± 6.4 nM
- histone H3 acetylation (western blot) (HCT116 cells): induced stronger hyperacetylation of histone H3 than that of SAHA
- GI50 (UACC-62; Homo sapiens): 71.6 nM
- TGI (UACC-62): 339 nM
- GI50 (SNB-75; Homo sapiens): 59.1 nM
- CC50 (SNB-75; [1]): 32800 nM
- TGI (SNB-75): 6270 nM
- GI50 (SF-295; Homo sapiens): 60.3 nM
- CC50 (SF-295; [1]): 2430 nM
- TGI (SF-295): 340 nM
- TGI (HOP-62): 1060 nM
- GI50 (HOP-62; Homo sapiens): 187 nM
- CC50 (HOP-62; [1]): 19200 nM
- GI50 (M14; Homo sapiens): 179 nM
- CC50 (M14; [1]): 6450 nM
- TGI (M14): 1110 nM
- GI50 (ACHN; Homo sapiens): 167 nM
- CC50 (ACHN; [1]): 4080 nM
- TGI (ACHN): 576 nM
- TGI (CAKI-1): 959 nM
- GI50 (CAKI-1; Homo sapiens): 218 nM
- CC50 (CAKI-1; [1]): > 100000 nM
- TGI (A498): 1130 nM
- GI50 (A498; Homo sapiens): 243 nM
- CC50 (A498; [1]): 5130 nM
- GI50 (SW-620; Homo sapiens): 147 nM
- CC50 (SW-620; [1]): > 100000 nM
- TGI (SW-620): 11200 nM
- GI50 (MDA-MB-435; Homo sapiens): 146 nM
- CC50 (MDA-MB-435; [1]): 11300 nM
- TGI (MDA-MB-435): 706 nM
- TGI (HOP-92): 814 nM
- GI50 (HOP-92; Homo sapiens): 210 nM
- CC50 (HOP-92; [1]): 18000 nM
- GI50 (IGROV1; Homo sapiens, IGROV-1): 183 nM
- CC50 (IGROV1; Homo sapiens, IGROV-1, read-out: LC50 (the source's name)): 2390 nM
- TGI (IGROV1): 533 nM
- GI50 (UACC-257; Homo sapiens): 127 nM
- CC50 (UACC-257; [1]): > 100000 nM
- TGI (UACC-257): 1650 nM
- GI50 (SNB-19; Homo sapiens): 434 nM
- CC50 (SNB-19; [1]): 5650 nM
- TGI (SNB-19): 1640 nM
- GI50 (KM12; Homo sapiens): 286 nM
- CC50 (KM12; [1]): 5780 nM
- TGI (KM12): 1490 nM
- GI50 (RPMI-8226; Homo sapiens): 81.1 nM
- CC50 (RPMI-8226; [1]): > 100000 nM
- TGI (RPMI-8226): >100000 nM
- GI50 (RXF 393; Homo sapiens): 112 nM
- CC50 (RXF 393; [1]): 998 nM
- TGI (RXF 393): 334 nM
- TGI (T-47D): 445 nM
- GI50 (T-47D; Homo sapiens, T47D): 121 nM
- CC50 (T-47D; Homo sapiens, T47D, read-out: LC50 (the source's name)): > 100000 nM
- GI50 (CCRF-CEM; Homo sapiens): 165 nM
- CC50 (CCRF-CEM; [1]): > 100000 nM
- TGI (CCRF-CEM): >100000 nM
- TGI (786-0): 1330 nM
- GI50 (786-0; Homo sapiens): 300 nM
- CC50 (786-0; [1]): 4020 nM
- TGI (BT-549): 5840 nM
- GI50 (BT-549; Homo sapiens): 680 nM
- CC50 (BT-549; [1]): > 100000 nM
- GI50 (OVCAR-8; Homo sapiens): 121 nM
- CC50 (OVCAR-8; [1]): > 100000 nM
- TGI (OVCAR-8): 1750 nM
- TGI (HCT-116): 204 nM
- GI50 (HCT-116; Homo sapiens): 56.3 nM
- CC50 (HCT-116; [1]): 566 nM
- TGI (DU-145): 1920 nM
- GI50 (DU-145; Homo sapiens): 179 nM
- CC50 (DU-145; [1]): > 100000 nM
